Target: T1, glucocerebrosidase (GCase), recombinant wt. enzyme velaglucerase alfa (Homo sapiens, UniProt P04062)
T1 construct: purchased Shire Human Genetic Therapies, Inc. Vpriv
T1 sequence (P04062 40-536): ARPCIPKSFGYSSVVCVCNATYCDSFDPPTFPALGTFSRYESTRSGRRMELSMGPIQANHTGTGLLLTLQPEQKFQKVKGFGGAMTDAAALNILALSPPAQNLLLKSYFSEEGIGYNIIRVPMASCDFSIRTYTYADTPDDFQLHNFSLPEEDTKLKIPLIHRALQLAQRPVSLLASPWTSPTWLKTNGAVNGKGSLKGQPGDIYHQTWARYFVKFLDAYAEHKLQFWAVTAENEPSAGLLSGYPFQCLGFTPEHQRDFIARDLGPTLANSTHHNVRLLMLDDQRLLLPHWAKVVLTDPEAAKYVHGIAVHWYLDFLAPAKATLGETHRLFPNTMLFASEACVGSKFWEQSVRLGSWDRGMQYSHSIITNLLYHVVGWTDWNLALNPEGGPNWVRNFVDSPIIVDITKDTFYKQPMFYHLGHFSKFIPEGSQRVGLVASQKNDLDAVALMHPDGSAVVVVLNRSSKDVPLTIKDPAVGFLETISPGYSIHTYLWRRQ
Assay: Glucocerebrosidase activity assay with blue substrate (4MU-Glc)
Type: biochemical
Settings: Table 1
Description: The compounds in DMSO solution 0.5 μL/well were transferred to a black 96-well plate (the final titration was 24 nM to 50 μM, 12 concentrations, 2 times dilution). 33.5 μL enzyme solution (7.5 nM final concentration) was transferred to the wells. After 5 min of incubation at room temperature, the enzyme reaction was initiated by the addition of 33 μL/well blue substrate or 66.5 μL/well red substrate. Final concentrations of the blue substrate (4MU-Glc) and red substrate (Res-Glc) were 1.5 mM and 30 μM, respectively. The red substrate reaction was measured in the Biotek Synergy H1 multi-mode plate reader with Ex=573 nm and Em=610 nm at 37° C. every 20 sec for 30 min. The blue substrate reaction was terminated by the addition of 33 μL/well stop solution (1 M NaOH and 1 M glycine mixture, pH 10) after 30 min of incubation at 37° C. The fluorescence was then measured in the plate reader at Ex=365 nm and Em=440 nm.
The recombinant wt. enzyme velaglucerase alfa (Vpriv®, Shire Human Genetic Therapies, Inc.) was obtained from residual solution after clinical infusions. The GCase activity assay buffer was composed of 50 mM citric acid, 176 mM K2HPO4, and 0.01% Tween-20 at pH 5.9. A solution of 1 M sodium hydroxide and 1 M glycine was used as the stop solution for the 4MU-β-glc substrate assay.
The compounds in DMSO solution 0.5 μL/well was transferred to a black 96-well plate (the final titration was 24 nM to 50 μM, 12 concentrations). 33.5 μL enzyme solution (7.5 nM final concentration) was transferred to the wells. After 5 min of incubation at room temperature, the enzyme reaction was initiated by the addition of 33 μL/well 4MU-Glc substrate or 66.5 μL/well red substrate. Final concentrations of the 4MU-Glc substrate and Res-Glc substrate were 1.5 mM and 30 μM, respectively. The red substrate reaction was measured in the Biotek Synergy H1 multi-mode plate reader with Ex=573 nm and Em=610 nm at 37° C. in every 20 seconds for 30 min. The 4MU-Glc substrate reaction was terminated by the addition of 33 μL/well stop solution (1 M NaOH and 1 M glycine mixture, pH 10) after 30 min of incubation at 37° C. The fluorescence was then measured in the plate reader with Ex=365 nm and Em=440 nm.

Row | Structure (SMILES) | Activator / Inhibitor (word in Ac50 cell)
1 | COc1ccc2nc(NC(=O)c3ccn4c(C)cc(C)nc34)sc2c1 [compound 47] | Inhibitor
2 | Cc1cc(C)n2ccc(C(=O)Nc3ccc(-c4cn(CCCCC(=O)O)nn4)cc3)c2n1 [compound 57] | Activator
3 | Cc1cc(C)n2ccc(C(=O)Nc3ccc(-c4cn(CCCCCCC(=O)O)nn4)cc3)c2n1 [compound 58] | Activator
4 | Cc1cc(C)n2ccc(C(=O)Nc3ccc(-c4cn(CCCCCCCCC(=O)O)nn4)cc3)c2n1 [compound 59] | Activator
5 | Cc1cc(C)n2ccc(C(=O)Nc3ccc(-c4cn(CCCCC(=O)ON5C(=O)CCC5=O)nn4)cc3)c2n1 [compound 60] | Activator
6 | Cc1cc(C)n2ccc(C(=O)Nc3ccc(-c4cn(CCCCCCCCC(=O)ON5C(=O)CCC5=O)nn4)cc3)c2n1 [compound 62] | Activator

Same assay, conditions: Table 1; titration 24 nM to 50 μM; substrate not given; read-out: Ac50

Row | Structure (SMILES) | AC50 [µM]
7 | C#Cc1ccc(NC(=O)c2ccn3c(C)cc(C)nc23)cc1 [compound 1] | 0.14
8 | Cc1cc(C)n2ccc(C(=O)Nc3ccc(C(F)(F)F)cc3)c2n1 [compound 5] | 0.8
9 | Cc1cc(C)n2ccc(C(=O)Nc3ccc(CN4CCOCC4)cc3)c2n1 [compound 7] | 112
10 | Cc1cc(C)n2ccc(C(=O)Nc3ccc(CN4CCN(C)CC4)cc3)c2n1 [compound 8] | 39.8
11 | Cc1cc(C)n2ccc(C(=O)Nc3ccc(CN4CCCCC4)cc3)c2n1 [compound 9] | 70.8
12 | Cc1cc(C)n2ccc(C(=O)Nc3ccc(N4CCN(C)CC4)cc3)c2n1 [compound 10] | 7.08
13 | CCN1CCN(c2ccc(NC(=O)c3ccn4c(C)cc(C)nc34)cc2)CC1 [compound 11] | 31.6
14 | Cc1cc(C)n2ccc(C(=O)Nc3ccc(N4CCN(Cc5ccccc5)CC4)cc3)c2n1 [compound 12] | 5.01
15 | Cc1cc(C)n2ccc(C(=O)Nc3ccc(Cc4ccccc4)cc3)c2n1 [compound 13] | 0.79
16 | Cc1cc(C)n2ccc(C(=O)Nc3ccc(CCN4CCOCC4)cc3)c2n1 [compound 14] | 31.6
17 | Cc1cc(C)n2ccc(C(=O)Nc3ccc(CCN4CCCCC4)cc3)c2n1 [compound 15] | 39.8
18 | Cc1cc(C)n2ccc(C(=O)Nc3ccc(CCN4CCN(C)CC4)cc3)c2n1 [compound 16] | 44.7
19 | Cc1cc(C)n2ccc(C(=O)Nc3ccc(N(C)C)cc3)c2n1 [compound 17] | 3.55
20 | Cc1cc(C)n2ccc(C(=O)Nc3ccc(N4CCCCC4)cc3)c2n1 [compound 18] | 1.58
21 | Cc1cc(C)n2ccc(C(=O)Nc3ccc(N4CCOCC4)cc3)c2n1 [compound 19] | 1.41
22 | Cc1cc(C)n2ccc(C(=O)Nc3ccc(CN(C)C)cc3)c2n1 [compound 20] | 14.1
23 | Cc1cc(C)n2ccc(C(=O)Nc3nccc4ccccc34)c2n1 [compound 21] | 39.8
24 | Cc1cc(C)n2ccc(C(=O)Nc3ccncc3)c2n1 [compound 22] | 25.1
25 | Cc1cc(C)n2ccc(C(=O)Nc3ccccn3)c2n1 [compound 23] | 22.4
26 | Cc1cc(C)n2ccc(C(=O)Nc3ccc(-c4ccccc4)cc3)c2n1 [compound 24] | 1.41
27 | Cc1cc(C)n2ccc(C(=O)Nc3ccc(N4CCCC4)cc3)c2n1 [compound 25] | 0.51

Row | Structure (SMILES) | AC50 [µM]
28 | Cc1cc(C)n2ccc(C(=O)Nc3nc4ccccc4[nH]3)c2n1 [compound 26] | 1.26
29 | Cc1cc(C)n2ccc(C(=O)NC3CCCCC3)c2n1 [compound 27] | 15.8
30 | Cc1cc(C)n2ccc(C(=O)NC3CCc4ccccc43)c2n1 (stereo not shown) [compound 28] | 3.98
31 | Cc1cc(C)n2ccc(C(=O)NC3Cc4ccccc4C3)c2n1 [compound 29] | 2.51
32 | Cc1cc(C)n2ccc(C(=O)Nc3ccc(CCO)cc3)c2n1 [compound 30] | 2.82
33 | Cc1cc(C)n2ccc(C(=O)Nc3nc4ccccc4s3)c2n1 [compound 31] | 0.4
34 | Cc1cc(C)n2ccc(C(=O)NC3CCN(Cc4ccccc4)CC3)c2n1 [compound 32] | 50
35 | Cc1cc(C)n2ccc(C(=O)NC3CCN(C(C)C)CC3)c2n1 [compound 34] | 30
36 | Cc1cc(C)n2ccc(C(=O)NC3CCN(c4ccccc4)CC3)c2n1 [compound 35] | 22.4
37 | Cc1cc(C)n2ccc(C(=O)Nc3ccc(-n4ccnc4)cc3)c2n1 [compound 36] | 107
38 | Cc1cc(C)n2ccc(C(=O)NC3CCC(N(C)C)CC3)c2n1 (stereo not shown) [compound 37] | 40
39 | Cc1cc(C)n2ccc(C(=O)Nc3ccc(C#Cc4ccccc4)cc3)c2n1 [compound 38] | 0.79
40 | Cc1cc(C)n2ccc(C(=O)Nc3nc4c(s3)CN(C)CC4)c2n1 [compound 39] | 39.8
41 | Cc1cc(C)n2ccc(C(=O)Nc3nc4cc(Cl)ccc4s3)c2n1 [compound 41] | 39.9
42 | Cc1cc(C)n2ccc(C(=O)Nc3nc4cc(F)ccc4s3)c2n1 [compound 42] | 50.2
43 | Cc1cc(C)n2ccc(C(=O)Nc3nc4c(C)cccc4s3)c2n1 [compound 43] | 0.2
44 | CCc1nnc(NC(=O)c2ccn3c(C)cc(C)nc23)s1 [compound 44] | 22.4
45 | Cc1cc(C)n2ccc(C(=O)Nc3ncc4ccccc4n3)c2n1 [compound 45] | 35.5
46 | Cc1cc(C)n2ccc(C(=O)Nc3cnn4c(C)cc(C)nc34)c2n1 [compound 46] | 0.45
47 | Cc1ccc2nc(NC(=O)c3ccn4c(C)cc(C)nc34)sc2c1 [compound 48] | 0.2
48 | CCCn1cnc(NC(=O)c2ccn3c(C)cc(C)nc23)n1 [compound 49] | 39.8

Row | Structure (SMILES) | AC50 [µM]
49 | Cc1cc(C)n2ccc(C(=O)Nc3ccc(N4CCC(N(C)C)CC4)cc3)c2n1 [compound 50] | 10
50 | Cc1cc(C)n2ccc(C(=O)NCc3cccs3)c2n1 [compound 51] | 15.8
51 | Cc1cc(C)n2ccc(C(=O)Nc3ccc(N=[N+]=[N-])cc3)c2n1 [compound 52] | 0.2
52 | Cc1cc(C)n2ccc(C(=O)Nc3ccc(C(=O)c4ccccc4)cc3)c2n1 [compound 53] | 0.14
53 | Cc1cc(C)n2ccc(C(=O)Nc3ccc(Oc4ccccc4)cc3)c2n1 [compound 54] | 0.56
54 | Cc1cc(C)n2ccc(C(=O)Nc3ccc(OCCC(=O)O)cc3)c2n1 [compound 56] | 15.8
55 | Cc1cc(C)n2ccc(C(=O)Nc3ccc(-c4cn(CCCCC(=O)O)nn4)cc3)c2n1 [compound 57] | 7.08
56 | Cc1cc(C)n2ccc(C(=O)Nc3ccc(-c4cn(CCCCCCC(=O)O)nn4)cc3)c2n1 [compound 58] | 1.78
57 | Cc1cc(C)n2ccc(C(=O)Nc3ccc(-c4cn(CCCCCCCCC(=O)O)nn4)cc3)c2n1 [compound 59] | 1.78
58 | Cc1cc(C)n2ccc(C(=O)Nc3ccc(-c4cn(CCCCC(=O)ON5C(=O)CCC5=O)nn4)cc3)c2n1 [compound 60] | 0.63
59 | Cc1cc(C)n2ccc(C(=O)Nc3ccc(-c4cn(CCCCCCC(=O)ON5C(=O)CCC5=O)nn4)cc3)c2n1 [compound 61] | 0.4
60 | Cc1cc(C)n2ccc(C(=O)Nc3ccc(-c4cn(CCCCCCCCC(=O)ON5C(=O)CCC5=O)nn4)cc3)c2n1 [compound 62] | 0.45
61 | Cc1cc(C)n2ccc(C(=O)Nc3ccc(-c4cn(CCN(C)C)nn4)cc3)c2n1 [compound 63] | 39.8
62 | Cc1cc(C)n2ccc(C(=O)Nc3ccc(-c4cn(CCCN)nn4)cc3)c2n1 [compound 64] | 7.07
63 | Cc1cc(C)n2ccc(C(=O)Nc3ccc(-c4cn(CCOCCN)nn4)cc3)c2n1 [compound 65] | 7.08
64 | Cc1cc(C)n2ccc(C(=O)Nc3ccc(-c4cn(CCOCCOCCOCCN)nn4)cc3)c2n1 [compound 66] | 7.94
65 | Cc1cc(C)n2ccc(C(=O)Nc3ccc(-c4cn(CCOCCOCCC(=O)NCCN5CCOCC5)nn4)cc3)c2n1 [compound 67] | 8.91
66 | Cc1cc(C)n2ccc(C(=O)Nc3ccc(-c4cn(CCOCCOCCC(=O)NCCC5CCCN5C)nn4)cc3)c2n1 (stereo not shown) [compound 68] | 10
67 | Cc1cc(C)n2ccc(C(=O)Nc3ccc(-c4cn(CCOCCOCCC(=O)NC5CCCCC5)nn4)cc3)c2n1 [compound 69] | 2
